The record followed here is patent publication US10047087B2, “Substituted pyrazolo[1,5-A] pyridine as tropomyosin receptor kinase (TrK) inhibitors” (Dr. Reddy's Laboratories Ltd., priority 2011, dated 2018).

Some results are limits rather than exact numbers.

The first series deals with T1, TrkA kinase (Homo sapiens, UniProt P04629).
T1 construct: purchased Upstate, USA
T1 sequence (P04629 33-796): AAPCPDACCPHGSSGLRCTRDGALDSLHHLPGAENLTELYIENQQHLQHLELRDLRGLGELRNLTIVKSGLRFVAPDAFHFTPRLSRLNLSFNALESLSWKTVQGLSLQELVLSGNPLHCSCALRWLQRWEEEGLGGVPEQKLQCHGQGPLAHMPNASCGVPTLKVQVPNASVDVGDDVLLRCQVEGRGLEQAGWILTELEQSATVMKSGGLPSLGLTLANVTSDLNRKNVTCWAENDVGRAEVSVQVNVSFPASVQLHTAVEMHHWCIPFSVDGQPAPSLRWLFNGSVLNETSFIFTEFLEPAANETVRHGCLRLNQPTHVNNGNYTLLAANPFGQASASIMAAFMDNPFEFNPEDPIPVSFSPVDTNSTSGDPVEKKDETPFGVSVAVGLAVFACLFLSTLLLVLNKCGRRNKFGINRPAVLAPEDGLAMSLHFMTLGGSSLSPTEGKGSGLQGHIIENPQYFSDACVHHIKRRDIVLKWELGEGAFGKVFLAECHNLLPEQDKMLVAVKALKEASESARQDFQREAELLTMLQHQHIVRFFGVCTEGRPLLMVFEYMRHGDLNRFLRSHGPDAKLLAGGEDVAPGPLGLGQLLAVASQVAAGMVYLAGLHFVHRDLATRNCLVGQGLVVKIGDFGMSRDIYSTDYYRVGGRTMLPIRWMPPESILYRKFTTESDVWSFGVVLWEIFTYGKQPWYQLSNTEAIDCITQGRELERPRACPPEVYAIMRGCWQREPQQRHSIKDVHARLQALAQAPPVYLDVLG
Kind of series: In vitro TrkA inhibitory activity using TR-FRET assay. It counts as biochemical. The conditions noted are these: 5 ng TrkA, 500 μM ATP, both bounds given in nm, read-out: TrkA inhibitory activity in-vitro IC50. The procedure: Determination of In Vitro TrkA Inhibitory Activity Using TR-FRET Assay
Compounds were screened in the TR-FRET assay with TrkA kinase. 5 ng of TrkA [Upstate, USA] kinase was used for assay. The compound was incubated with the kinase for 30 minutes at 20-35° C. After the incubation, substrate mix [40 nM Ultra light poly GT (Perkin Elmer, USA) and 500 μM ATP] was added. The above reaction was stopped by the addition of 40 mM EDTA after 30 minutes. The Eu-labelled antiphospho-tyrosine antibody [Perkin Elmer, USA] was added at 0.5 nM and the fluorescence emission at 615 nm/665 nm [excitation at 340 nm] was measured. The compounds were initially screened at 100 nM, 1 μM and 10 μM concentrations. The potent compounds with >25% inhibition at 1 μM of TrkA were taken for the full dose response studies. The final DMSO concentration in the assay was […]. For IC50 determination, ⅓^rd serial dilution was made from the 20 mM DMSO stock solution. 2 μl of these were transferred to the test wells containing 20 μl reaction mixture [Total reaction volume 22 μl]. The fluorescence was measured in Perkin Elmer Wallac 1420 Multilabel Counter Victor 3. The IC50 was determined by fitting the dose response data to a sigmoidal curve fitting equation using GraphPad Prism software version 5.
Background: Time-resolved FRET reads energy transfer from a long-lived donor to a nearby acceptor.
What is called IC50 is the point on the concentration scale where inhibition reaches its midpoint. Consider `O=C(NS(=O)(=O)N1CC[C@H](O)C1)c1cnn2ccc(N3CCC[C@@H]3c3cc(F)ccc3F)cc12` [Example 93, 5-((R)-2-(2,5-difluorophenyl)pyrrolidin-1-yl)-N-(((S)-3-hydroxypyrrolidin-1-yl)sulfonyl)pyrazolo[1,5-a] pyridine-3-carboxamide], for which the IC50 fell in the range of 0.1 to 0.5 µM.
Same read-out and setting: the result for `CN1CCN(S(=O)(=O)NC(=O)c2cnn3ccc(N4CCC[C@@H]4c4cc(F)ccc4F)cc23)CC1` [Example 86, (R)-5-(2-(2,5-difluorophenyl)pyrrolidin-1-yl)-N-((4-methylpiperazin-1-yl)sulfonyl)pyrazolo[1,5-a]pyridine-3-carboxamide] reads 0.1 to 0.5 µM; that for `O=C(NS(=O)(=O)c1cc(Cl)sc1Cl)c1cnn2ccc(N3CCC[C@@H]3c3cc(F)ccc3F)cc12` [Example 32, (R)-N-((2,5-dichlorothiophen-3-yl)sulfonyl)-5-(2-(2,5-difluorophenyl)pyrrolidin-1-yl) pyrazolo[1,5-a]pyridine-3-carboxamide], 0.1 to 0.5 µM; that for `CC(C)(C)S(=O)(=O)NC(=O)c1cnn2ccc(N3CC(F)(F)CC3c3cc(F)ccc3F)cc12` (centres unmarked) [Example 133, Sodium (tert-butylsulfonyl)(5-(2-(2,5-difluorophenyl)-4,4-difluoropyrrolidin-1-yl)pyrazolo[1,5-a]pyridine-3-carbonyl)amide], 0.1 to 0.5 µM.
The same measure, in the same setting: the result for `CC(C)S(=O)(=O)NC(=O)c1cnn2ccc(N3CCC[C@@H]3c3cc(F)cc(F)c3)cc12` [Example 71, (R)-5-(2-(3,5-difluorophenyl)pyrrolidin-1-yl)-N-(isopropylsulfonyl)pyrazolo[1,5-a] pyridine-3-carboxamide] reads 0.1 to 0.5 µM; that for `Cn1nccc1S(=O)(=O)NC(=O)c1cnn2ccc(N3CCC[C@@H]3c3cc(F)ccc3F)cc12` [Example 19, (R)-5-(2-(2,5-difluorophenyl)pyrrolidin-1-yl)-N-((1-methyl-1H-pyrazol-5-yl)sulfonyl) pyrazolo[1,5-a]pyridine-3-carboxamide], 0.1 to 0.5 µM; that for `Cc1noc(C)c1S(=O)(=O)NC(=O)c1cnn2ccc(N3CCC[C@@H]3c3cc(F)ccc3F)cc12` [Example 11, (R)-5-(2-(2,5-difluorophenyl)pyrrolidin-1-yl)-N-((3,5-dimethylisoxazol-4-yl)sulfonyl) pyrazolo[1,5-a]pyridine-3-carboxamide], 0.1 to 0.5 µM.
Consider `Cn1cc(S(=O)(=O)NC(=O)c2cnn3ccc(N4CCC[C@@H]4c4cc(F)ccc4F)cc23)cn1` [Example 28, (R)-5-(2-(2,5-difluorophenyl)pyrrolidin-1-yl)-N-((1-methyl-1H-pyrazol-4-yl)sulfonyl) pyrazolo[1,5-a]pyridine-3-carboxamide], for which the IC50 was in the range of 0.1 to 0.5 µM.

Staying with this series, now noted: 5 ng TrkA, 500 μM ATP, lower bound in nm [sic], upper bound in μM, read-out: TrkA inhibitory activity in-vitro IC50.
Regarding `CC(C)(C)S(=O)(=O)NC(=O)c1cnn2ccc(N3CCC[C@@H]3c3cc(F)cc(OC4CCOC4)c3)cc12` (stereo partly drawn) [Example 68, N-(tert-butylsulfonyl)-5-((2R)-2-(3-fluoro-5-((tetrahydrofuran-3-yl)oxy)phenyl)pyrrolidin-1-yl)pyrazolo[1,5-a]pyridine-3-carboxamide], the IC50 was in the range of 0.5 to 1 µM.
For the compound `CN1C(=O)Cc2cc(S(=O)(=O)NC(=O)c3cnn4ccc(N5CCC[C@@H]5c5cc(F)ccc5F)cc34)ccc21` [Example 21, (R)-5-(2-(2,5-difluorophenyl)pyrrolidin-1-yl)-N-((1-methyl-2-oxoindolin-5-yl)sulfonyl) pyrazolo[1,5-a]pyridine-3-carboxamide], the IC50 was 0.5 to 1 µM.
The same measure, in the same setting: as for `O=C(NS(=O)(=O)c1cccnc1)c1cnn2ccc(N3CCC[C@@H]3c3cc(F)ccc3F)cc12` [Example 30, (R)-5-(2-(2,5-difluorophenyl)pyrrolidin-1-yl)-N-(pyridin-3-ylsulfonyl)pyrazolo[1,5-a]pyridine-3-carboxamide], the figure is 0.5 to 1 µM.

Staying with this series, now noted: 5 ng TrkA, 500 μM ATP, read-out: TrkA inhibition in-vitro IC50.
Regarding `CCN(C)S(=O)(=O)NC(=O)c1cnn2ccc(N3CCC[C@@H]3c3cc(F)ccc3OC3CCOC3)cc12` (stereo partly drawn) [Example 139, Sodium (N-ethyl-N-methylsulfamoyl)(5-((2R)-2-(5-fluoro-2-((tetrahydrofuran-3-yl)oxy)phenyl)pyrrolidin-1-yl)pyrazolo[1,5-a]pyridine-3-carbonyl)amide], the IC50 is ≤ 0.05 µM.
Consider `CC(C)(C)S(=O)(=O)NC(=O)c1cnn2ccc(N3CCC[C@@H]3c3cc(F)ccc3Cl)cc12` [Example 47, (R)-N-(tert-butylsulfonyl)-5-(2-(2-chloro-5-fluorophenyl)pyrrolidin-1-yl)pyrazolo[1,5-a]pyridine-3-carboxamide], for which the IC50 lay in the range of 0.05 to 0.1 µM.
Still for that read-out and setting: as for `O=C(NS(=O)(=O)c1ccc2c(c1)OCCO2)c1cnn2ccc(N3CCC[C@@H]3c3cc(F)ccc3F)cc12` [Example 34, (R)-5-(2-(2,5-difluorophenyl)pyrrolidin-1-yl)-N-((2,3-dihydrobenzo[b][1,4]dioxin-6-yl)sulfonyl)pyrazolo [1,5-a]pyridine-3-carboxamide], the figure is 0.05 to 0.1 µM; as for `Cc1ccccc1S(=O)(=O)NC(=O)c1cnn2ccc(N3CCC[C@@H]3c3cc(F)ccc3F)cc12` [Example 140, Sodium (R)-(5-(2-(2,5-difluorophenyl)pyrrolidin-1-yl)pyrazolo[1,5-a]pyridine-3-carbonyl)(o-tolylsulfonyl)amide], ≤ 0.05 µM; as for `O=C(NS(=O)(=O)C1(Cc2ccc(F)cc2)CC1)c1cnn2ccc(N3CCC[C@@H]3c3cc(F)ccc3F)cc12` [Example 41, (R)-5-(2-(2,5-difluorophenyl)pyrrolidin-1-yl)-N-((1-(4-fluorobenzyl)cyclopropyl)sulfonyl) pyrazolo[1,5-a]pyridine-3-carboxamide], ≤ 0.05 µM.
The same measure, in the same setting: the result for `CCN(CC)S(=O)(=O)NC(=O)c1cnn2ccc(N3CCC[C@@H]3c3cc(F)ccc3OC)cc12` [Example 87, (R)-N-(N,N-diethylsulfamoyl)-5-(2-(5-fluoro-2-methoxyphenyl)pyrrolidin-1-yl) pyrazolo[1,5-a]pyridine-3-carboxamide] reads ≤ 0.05 µM; that for `O=C(NS(=O)(=O)N1CCCC1)c1cnn2ccc(N3CCC[C@@H]3c3cc(F)ccc3F)cc12` [Example 85, (R)-5-(2-(2,5-difluorophenyl)pyrrolidin-1-yl)-N-(pyrrolidin-1-ylsulfonyl)pyrazolo[1,5-a]pyridine-3-carboxamide], ≤ 0.05 µM.

Tested on in the next series: not listed separately
Description: Metabolic stability using Human Liver Microsomes (HLM). It counts as in vitro ADME. The conditions noted are these: pooled human liver microsomes, compound 1 μM, 0.3 mg/ml microsomal protein, 1 mM NADPH. The procedure: Stability Protocol: Metabolic Stability Using Rat Liver Microsomes (RLM) and Human Liver Microsomes (HLM).
This assay was performed using pooled male rat liver microsomes (In-house prepared as per SOP), Pooled Human liver microsomes (XENOTECH; Batch No— H0630-1110189)). The 100 μl reaction contains the compounds at 1 μM, 0.3 mg/ml microsomal protein and both the co-factors (1 mM NADPH) in buffer and the mixture was incubated at different time points (0, 15, 30, 45, 60, & 90 minutes). The reaction was stopped by the addition of equal volume of acetonitrile containing internal standard (Telmesartin). The precipitated protein was removed by centrifugation and the supernatant were analyzed LC/MS-MS method. The percent parent compound remaining was quantified by analysis using following formula (% parent compound remaining=(peak area at Time x/peak area at T0)×100. The intrinsic clearance was calculated using the following formula. CLint,app: (0.693/in vitro t½)(incubation volume/mg of microsomal protein)(45 mg microsomal protein/gram of liver)(20^a g of liver/kg body weight) • a: 20 and 45 g of liver/kg of body weight were used for human and rat, respectively (Lu C et al., DMD, 2006). Bio-analysis: It was performed in Multiple Reaction Monitoring mode (negative mode) using Applied Biosystems API 4000 coupled to Agilent Technologies 1100 series HPLC on a reverse phase column (Zorbax Eclipse XDB C18, 50×4.6 mm, 5 μm). Celecoxib was used as internal standard both in in-vitro and in-vivo experiments. Mobile phase used 0.05% […] water and acetonitrile (10:90) with a flow rate of 0.6 ml/minute. The injection volume was kept as 10 μl.
By half-life is commonly meant the time in which the quantity being followed falls by half. Lower therefore signals fast loss. In the case of `Cc1ccccc1S(=O)(=O)NC(=O)c1cnn2ccc(N3CCC[C@@H]3c3cc(F)ccc3F)cc12` [Example 39, (R)-5-(2-(2,5-difluorophenyl)pyrrolidin-1-yl)-N-(o-tolylsulfonyl)pyrazolo[1,5-a]pyridine-3-carboxamide], the half-life at 1 μM is > 1.33 h.
For `CC(C)(C)S(=O)(=O)NC(=O)c1cnn2ccc(N3CCC[C@@H]3c3cc(F)ccc3OC3CCOCC3)cc12` [Example 124, (R)-N-(tert-butylsulfonyl)-5-(2-(5-fluoro-2-((tetrahydro-2H-pyran-4-yl)oxy)phenyl)pyrrolidin-1-yl)pyrazolo[1,5-a]pyridine-3-carboxamide], the half-life at 1 μM is > 1.33 h.
Consider `NS(=O)(=O)NC(=O)c1cnn2ccc(N3C[C@@H](F)C[C@@H]3c3cccc(F)c3)c(F)c12` [Example 107, 4-fluoro-5-((2R,4S)-4-fluoro-2-(3-fluorophenyl)pyrrolidin-1-yl)-N-sulfamoylpyrazolo[1,5-a]pyridine-3-carboxamide], for which the half-life at 1 μM is > 1.33 h.
As to `CCN(C)S(=O)(=O)NC(=O)c1cnn2ccc(N3C[C@@H](F)C[C@@H]3c3cccc(F)c3)c(F)c12` [Example 102, N-(N-ethyl-N-methylsulfamoyl)-4-fluoro-5-((2R,4S)-4-fluoro-2-(3-fluorophenyl)pyrrolidin-1-yl)pyrazolo[1,5-a]pyridine-3-carboxamide], the half-life at 1 μM is > 1.33 h.
On the same count and under the same terms, as for `CC(C)S(=O)(=O)NC(=O)c1cnn2ccc(N3C[C@@H](F)C[C@@H]3c3cccc(F)c3)c(F)c12` [Example 122, 4-fluoro-5-((2R,4S)-4-fluoro-2-(3-fluorophenyl)pyrrolidin-1-yl)-N-(isopropylsulfonyl) pyrazolo[1,5-a]pyridine-3-carboxamide], the figure is > 1.33 h.
